Source: US12594261B2, “Use of heterocyclic derivatives with cardiomyocyte proliferation activity for treatment of heart diseases” (SHANGHAI EAST HOSPITAL (EAST HOSPITAL, TONGJI UNIVERSITY …, priority 2019, dated 2026)
“Also recorded” adds a separate entry of the source. Read-outs that look alike come from different tables or passages of the source.

What was measured:
[1] = tested on: neonatal rat ventricular myocytes (NRVMs); experiment: Myocyte proliferation assay (EdU) in neonatal rat ventricular myocytes; type: cell-based; details: for activation at 1 µM / activation at 3 µM / activation at 10 µM: Rattus norvegicus, Ventricular myocyte, growth relative to blank myocyte growth without compound added; for activation at 1 µM: 1 uM compound; for activation at 3 µM: 3 uM compound; for activation at 10 µM: 10 uM compound
Protocol: 1. Isolation of and Culture Neonatal Rat Ventricular Myocytes (NRVMs)
Ventricles from neonatal rats were separated from the atria, cut into small pieces (about 2×2 mm^2) and then dissociated in Ca^2+-free HBSS containing 0.125 mg ml-1 trypsin (Gibco), 10 μg ml-1 DNase II (Sigma) and 0.1 mg ml-1 collagenase type IV (Sigma). The digestion was carried out under constant stirring at 37° C. for 5 min. The supernatant was collected with FBS (Gibco) after each digestion period. After digestion, the collected supernatant was centrifuged at 1000 g for 10 min at room temperature, and then cell pellets were resuspended in DMEM (Gibco) supplemented with 10% FBS and with 100 uM 5-bromo-2′-deoxyuridine (Sigma). The resuspended cells were passed through a cell strainer ([…], BD Falcon) and seeded onto 100-mm plastic dishes for 2 h at 37° C. in a 5% CO2 to remove fibroblasts, the supernatant was then collected and plated onto 1% gelatin (Sigma)-coated dishes. 24 h after the seeding, the medium was changed to DMEM (Gibco) containing 2% FBS (Gibco), 1% insulin-transferrin-selenium (ITS; Gibco), 1% Penicillin-Streptomycin (Gibco). After 24 hours of low serum culture, remove the medium with DMEM (Gibco) containing 6% FBS (Gibco), 1% insulin-transferrin-selenium (ITS; Gibco), 1% Penicillin-Streptomycin (Gibco), different concentrations of compounds (the compounds were pre-diluted in the medium and the drug concentration was 10 uM, 3 uM, 1 uM, fully mixed). After 36 h add Edu substrate (Invitrogen) according to the manufacturer's guidelines, and then after 12 h cell can be used.
2.1. Immobilization: Remove the medium and fix the cells with […] in 200 ul (whichever is covered) for 15 min and wash the cells twice with 500 ul of PBS for 5 min each time.
2.2. Broken membrane: Add 200 ul of 0.3% Triton-X 100 (diluted in PBS) to each well, incubate for 10-15 min at room temperature (the time should not be too long), and wash the cells twice with 500 ul of PBS for 5 min each time.
2.3. Blocking: Add 200 ul of 10% normal goat serum (diluted with 0.1% PBST) to each well, incubate for 1 h at room temperature, and wash twice with 500 ul of 0.1% PBST for 5 min each time.
2.4. Primary antibody: dilute the primary antibody (abcam, ab8295) to blocking solution at a ratio of 1:200, add 100 ul per well, incubate for 1 h at room temperature (may be slightly longer than 2-3 h), wash the cells twice with 500 ul 0.1% PBST for 5 min each time.
2.5. Secondary antibody: Dilute the fluorescently labeled secondary antibody (abcam, ab150117) into blocking solution at a ratio of 1:200, add 100 ul per well, incubate for 1 h at room temperature (the time should not be too long), wash the cells twice with 0.1% PBST for 5 min each time, pay attention to the whole process. Protected from light.
2.6. Edu staining (Invitrogen C10338)
2.6.1 Prepare Click-iT® reaction cocktail according to Table 3. It was important to add the ingredients in the order listed in the table; otherwise, the reaction would not proceed optimally. Use the Click-iT® reaction cocktail within 15 minutes of preparation.
2.6.2 Add 0.1 mL of Click-iT® reaction cocktail to each well containing a coverslip. Rock the plate briefly to ensure that the reaction cocktail is distributed evenly over the coverslip.
2.6.3 Incubate the plate for 30 minutes at room temperature, protected from light.
2.6.4 Remove the reaction cocktail, then wash the cells twice with 0.1% PBST for 5 min each time.
2.7. DAPI staining: DAPI stain was diluted to PBS at a ratio of 1:1000, 100 ul per well, incubated for 30 min at room temperature, and the cells were washed twice with PBS for 5 min each.
We used Molecular Devices' Image Xpress Micro Confocal for high-throughput photo and data analysis.

human GSK3 beta = target: T1, human GSK3 beta (Homo sapiens, UniProt P49841); experiment: GSK3 beta enzyme assay (ADP-Glo); type: biochemical
T1 construct: Recombinant full-length human GSK3 beta (expressed in Sf9 insect cells with an N-terminal His tag); His tag (N); purchased SignalChem G09-10H; host or cells: Sf9 insect cells
Protocol: 1. GSK3 Beta Enzyme Assay
The ability of compounds to inhibit human GSK3 beta kinase activities was determined using a commercially available ADP-Glo™ Kinase Assay kit (Promega, Cat #V9102) according to the manufacturer's protocol. The ADP-Glo™ Kinase Assay is a luminescent ADP detection assay that provides a universal, homogeneous, high-throughput screening method to measure kinase activity by quantifying the amount of ADP produced during a kinase reaction. The ADP-Glo™ Kinase Assay can be used to monitor the activity of virtually any ADP-generating enzymes (e.g., kinases or ATPases).
Recombinant full-length human GSK3 beta (expressed in Sf9 insect cells with an N-terminal His tag) was purchased from SignalChem (SignalChem, Cat #G09-10H). The GSK3 substrate peptide (sequence: […](pS)EDEEE) was purchased from SignalChem (SignalChem, Cat #G50-58). This assay, run in a 384-well plate format, is a generic method for measuring kinase activities using an ADP-Glo Kinase Assay Kit. The basic assay procedure involves two steps: (1) Enzymatic step: inhibitors are incubated with the kinase and then ATP (included in the ADP-Glo Kinase Assay Kit) and the GSK3 substrate peptide are added to start the enzymatic reaction; (2) Detection step: after the kinase reaction, first ADP-Glo™ Reagent is added to terminate the kinase reaction and deplete the remaining ATP. Second, the Kinase Detection Reagent is added to simultaneously convert ADP to ATP and allow the newly synthesized ATP to be measured using a luciferase/luciferin reaction. The light generated is measured using a luminometer.
Briefly, GSK3 beta (4 nM) in the enzymatic buffer solutions (40 mM Tris, 7.5, 20 mM MgCl2, 0.1 mg/ml BSA, 50 μM DTT) were mixed with various concentrations of inhibitors (dissolved in 100% DMSO). These solutions were incubated for 30 minutes at 25° C., and subsequently a mixture of substrate peptide and ATP was added with the final peptide and ATP concentrations at 13 μM and 25 μM, respectively. The final reaction mixture of enzyme-substrate-ATP-compound was incubated for 60 minutes at 25° C.
Afterwards ADP-Glo™ Reagent was added and the mixture was incubated at 25° C. for 60 minutes. Then Kinase Detection Reagent was added and the final mixture was incubated at 25° C. for 60 minutes. The luminescence signal of the final solution was measured on an Envision instrument (PerkinElmer). The percent (%) inhibition at each concentration of a compound is calculated relative to the luminescence signal in the Max and Min control wells contained within each assay plate. […] The concentrations and percent inhibition values for a test compound are plotted and the concentration of the compound required to achieve 50% inhibition (IC50) is determined with a four-parameter logistic dose response equation.

[2] = tested on: Myocardial Infarction (left coronary artery ligation); experiment: In vivo test, myocardial infarction (heart infarct) model; parameters: species or system C57/BL6 mice
Protocol: 6-week-old C57/BL6 mice were anesthetized with 1% isoflurane in a chamber. The mice were placed in a left supine position on a heating pad (37° C.), and the heart was exposed via thoracotomy at the fourth left intercostal space. The pericardium was then opened, and the left coronary artery was permanently ligated with a 7-0 suture. Ligation was considered successful when the left ventricle became pale. From one week after surgery, the compound L41 or control solvent were injected via tail vein every other day. The mice were then euthanized after 6 weeks of injection, and the hearts were subjected to histology.
2. Injury Region Division
The cardiac tissue regions used for image characterization are described as the whole heart, infarct zone (left ventricle free wall), border zone (left ventricle anterior and posterior walls), or distal zone (interventricular septum).
For histology studies, hearts were collected at the indicated time points. […]
Hearts were sectioned at a thickness of 8 μm, and slides were created with 5 sections per slide. […] Scar size was quantified by examining serial sections from the apex to the ligation site and calculating the average percent fibrotic area of the total area using Image J software based on Masson's trichrome staining.

T1 sequence (P49841 whole entry): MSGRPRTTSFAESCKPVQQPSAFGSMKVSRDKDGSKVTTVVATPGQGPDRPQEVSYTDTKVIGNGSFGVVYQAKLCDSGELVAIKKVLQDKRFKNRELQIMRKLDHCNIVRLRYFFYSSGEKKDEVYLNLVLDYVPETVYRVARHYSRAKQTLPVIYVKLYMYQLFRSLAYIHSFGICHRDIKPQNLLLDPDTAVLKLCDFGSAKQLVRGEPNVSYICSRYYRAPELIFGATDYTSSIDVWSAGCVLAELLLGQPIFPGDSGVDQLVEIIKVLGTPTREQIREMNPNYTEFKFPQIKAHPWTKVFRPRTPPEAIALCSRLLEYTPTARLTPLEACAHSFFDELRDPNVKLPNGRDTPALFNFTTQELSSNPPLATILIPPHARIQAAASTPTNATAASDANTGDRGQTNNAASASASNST

Row | SMILES | activation at 1 µM [1] [%] | activation at 3 µM [1] [%] | activation at 10 µM [1] [%] | IC50 (human GSK3 beta; read-out: GSK3b IC50) [µM] | IC50 (human GSK3 beta) [µM] | myocyte growth / proliferation (EDU proliferation index), in words ([1]; neonatal rat cardiomyocytes, FIGS. 3-5) | cardiomyocyte proliferation in the heart infarct model ([2]; mouse, in vivo) | infarct size in the heart infarct model ([2]; tail vein injection every other day from one week after surgery, 6 weeks, FIG. 6 and 7)
1 | CN1C(=O)/C(=C/c2ccc3c(c2)OCO3)N=C1N(C)c1ccccc1 [TJU-B116, (Z)-5-(benzo[d][1,3]dioxol-5-ylmethylene)-3-methyl-2-(methyl(phenyl)amino)-3,5-dihydro-4H-imidazol-4-one] | < 10 | < 10 | < 10 | > 10 | – | – | – | –
2 | CCN(C1=N/C(=C\c2ccc3c(c2)OCO3)C(=O)N1)c1ccccc1 [TJU-B182, (Z)-5-(benzo[d][1,3]dioxol-5-ylmethylene)-2-(ethyl(phenyl)amino)-3,5-dihydro-4H-imidazol-4-one] | 10 to 50 | 10 to 50 | 10 to 50 | > 10 | – | – | – | –
3 | CC(=O)N(C1=N/C(=C\c2ccc3c(c2)OCO3)C(=O)N1)c1ccccc1 [TJU-B183, (Z)—N-(4-(benzo[d][1,3]dioxol-5-ylmethylene)-5-oxo-4,5-dihydro-1H-imidazol-2-yl)-N-phenylacetamide] | < 10 | 10 to 50 | > 50 | – | > 10 | – | – | –
4 | O=C1/C(=C/c2ccc3c(c2)OCO3)N=C(N(Cc2ccccc2)c2ccccc2)N1Cc1ccccc1 [TJU-B076, (Z)-5-(benzo[d][1,3]dioxol-5-ylmethylene)-3-benzyl-2-(benzyl(phenyl)amino)-3,5-dihydro-4H-imidazol-4-one] | < 10 | < 10 | > 50 | > 10 | – | – | – | –
5 | O=C1NC(Nc2ccccc2)=N/C1=C\c1ccc2c(c1)OCO2 [Example L41, (Z)-5-(benzo[d][1,3]dioxol-5-ylmethylene)-2-(phenylamino)-3,5-dihydro-4H-imidazol-4-one] | < 10 | < 10 | < 10 | – | – | potent agonist for promoting myocyte growth or proliferation; also recorded: promotes myocyte growth; also recorded: promotes proliferation of neonatal rat cardiomyocytes; also recorded: potent activity | superior cardiomyocyte proliferation activity | reduction in infarct size
6 | CN(C1=N/C(=C\c2ccc3c(c2)OCO3)C(=O)N1)c1ccccc1 [TJU-B115, (Z)-5-(benzo[d][1,3]dioxol-5-ylmethylene)-2-(methyl(phenyl)amino)-3,5-dihydro-4H-imidazol-4-one] | < 10 | > 50 | 10 to 50 | > 10 | – | – | – | –
